According to patent US4464371A, “Five-membered heterocyclic compounds” (Santen Pharmaceutical Co., Ltd., priority 1980, dated 1984):

Legend:
[1] = system: blood pressure of spontaneously hypertensive rats; test: Hypotensive effect in spontaneously hypertensive rats (oral, indirect tail-cuff method); type: in vivo, Male spontaneously hypertensive rats (Charles River); settings: 10 mg/Kg and 30 mg/Kg, suspended in 0.5% tragacanth, male spontaneously hypertensive rats
Procedure: Male spontaneously hypertensive rats (Charles River) weighing 370-430 g (37-43 weeks of age) were used.
The subject compound, suspended in 0.5% tragacanth, was given orally to the animals. Their blood pressure was measured by indirect tail-cuff method using a programmed electrosphygmomanometer.
In the figure, line 1 and line 2 represent the hypotensive effect by the compound of this invention at doses of 30 mg/Kg and 10 mg/Kg, respectively, line 3 that by the reference compound at a dose of 30 mg/Kg, and line 4 control (no drugs).

[2] = Acute toxicity test; type: in vivo, male mice; settings: mouse, in vivo; intravenous, administered as aqueous sodium hydroxide solution, male mice
Text: (§1) Acute toxicity of (2R,4R)--3--[S--[4--(dipropylsulfamoyl)--benzoyl]--3--mercaptopropionyl]-- 2--(2--hydroxyphenyl)--4--thiazolidinecarboxylic acid is shown in the table.
(§2) *^1 administered as tragacanth
(§3) *^2 administered as aqueous sodium hydroxide solution
(§4) Animals used in this test were ten male mice in each route.

[3] = system: mice; test: Acute toxicity test; type: in vivo, male mice
Text: as §1, §2, §3, §4

## CCCN(CCC)S(=O)(=O)c1ccc(C(=O)SCCC(=O)N2[C@@H](c3ccccc3O)SC[C@H]2C(=O)O)cc1 [Example 1, (2R,4R)--3--[S--[4--(Dipropylsulfamoyl)benzoyl]--3--mercaptopropionyl]--2-- (2--hydroxyphenyl)--4--thiazolidinecarboxilic acid]
[1]
  decrease of blood pressure (hypotensive effect): clearly decreased the blood pressure
[2]
  LD50: > 500 mg/kg
[3]; mouse, in vivo, po, 1000 mg/kg
  LD50 (deaths observed): No death was observed
[3]; oral and intravenous, male mice
  acute toxicity (overall): low toxicity
